Among the data in article PMC7180948, “New Insights into 4-Anilinoquinazolines as Inhibitors of Cardiac Troponin I–Interacting Kinase (TNNi3K)” (Molecules, 2020) are inhibition values, retold here.

Molecules are shown by their SMILES.

Holding throughout (assay): biochemical
Holding throughout (set-up): KINOMEscan competition binding panel (Eurofins DiscoverX), single concentration, % inhibition
Common to all, as to details: read-out: 7 at 1 µM % inhibition

Experiment [1] deals with T1, BIKE (Homo sapiens, UniProt Q9NSY1).
T1 construct: gene BMP2K
The method in brief:
(§1)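 Compounds were submitted at 1 µM to a KINOMEscan assay covering more than 400 human kinases. The screen served to define the selectivity profile.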

In experiment [2] the target is T2, DCAMKL1 (Homo sapiens, UniProt O15075).
T2 construct: gene DCLK1
The method in brief: as §1

Experiment [3] concerns the target EGFR(G719S) (Homo sapiens, UniProt P00533, G719S). In a few lines: as §1
In experiment [4] the target is EPHB2 (Homo sapiens, UniProt P29323). In a few lines: as §1
Experiment [5] has as its target FLT3(K663Q) (Homo sapiens, UniProt P36888, K663Q). The method in brief: as §1
Experiment [6] concerns the target HIPK1 (Homo sapiens, UniProt Q86Z02). In a few lines:
as §1

Experiment [7] deals with IRAK1 (Homo sapiens, UniProt P51617). In a few lines:
as §1

The target in experiment [8] is ITK (Homo sapiens, UniProt Q08881). In a few lines: as §1
Experiment [9] concerns the target T3, JNK2 (Homo sapiens, UniProt P45984).
T3 construct: gene MAPK9
The method in brief:
as §1

In experiment [10] the target is LCK (Homo sapiens, UniProt P06239). The method in brief:
as §1

Experiment [11] addresses T4, MKK7 (Homo sapiens, UniProt O14733).
T4 construct: gene MAP2K7
In a few lines: as §1

Experiment [12] has as its target NEK11 (Homo sapiens, UniProt Q8NG66). The method in brief:
as §1

The target in experiment [13] is T5, NIK (Homo sapiens, UniProt Q99558).
T5 construct: gene MAP3K14
The method in brief: as §1

In experiment [14] the target is T6, PCTK2 (Homo sapiens, UniProt Q00537).
T6 construct: gene CDK17
The method in brief: as §1

Experiment [15] concerns the target PIK3CA(Q546K) (Homo sapiens, UniProt P42336, Q546K). The method in brief:
as §1

For experiment [16], the target named is PIM2 (Homo sapiens, UniProt Q9P1W9). The method in brief: as §1
Experiment [17] deals with PLK4 (Homo sapiens, UniProt O00444). The method in brief:
as §1

Experiment [18] addresses T7, PYK2 (Homo sapiens, UniProt Q14289).
T7 construct: gene PTK2B
In a few lines:
as §1

The target in experiment [19] is ROCK1 (Homo sapiens, UniProt Q13464). The method in brief:
as §1

Experiment [20] deals with T8, RSK1(Kin.Dom.2-C-terminal) (Homo sapiens, UniProt Q15418).
T8 construct: gene RPS6KA1; Kin.Dom.2-C-terminal
In a few lines:
as §1

The target in experiment [21] is STK33 (Homo sapiens, UniProt Q9BYT3). In a few lines: as §1
The target in experiment [22] is T9, TIE2 (Homo sapiens, UniProt Q02763).
T9 construct: gene TEK
In a few lines: as §1

Experiment [23] deals with TYRO3 (Homo sapiens, UniProt Q06418). The method in brief:
as §1

For experiment [24], the target named is T10, YSK4 (Homo sapiens, UniProt Q56UN5).
T10 construct: gene MAP3K19
The method in brief:
as §1

For orientation: inhibition means the share of the control response that was lost under treatment.

Sequence of EPHB2 (P29323 whole entry): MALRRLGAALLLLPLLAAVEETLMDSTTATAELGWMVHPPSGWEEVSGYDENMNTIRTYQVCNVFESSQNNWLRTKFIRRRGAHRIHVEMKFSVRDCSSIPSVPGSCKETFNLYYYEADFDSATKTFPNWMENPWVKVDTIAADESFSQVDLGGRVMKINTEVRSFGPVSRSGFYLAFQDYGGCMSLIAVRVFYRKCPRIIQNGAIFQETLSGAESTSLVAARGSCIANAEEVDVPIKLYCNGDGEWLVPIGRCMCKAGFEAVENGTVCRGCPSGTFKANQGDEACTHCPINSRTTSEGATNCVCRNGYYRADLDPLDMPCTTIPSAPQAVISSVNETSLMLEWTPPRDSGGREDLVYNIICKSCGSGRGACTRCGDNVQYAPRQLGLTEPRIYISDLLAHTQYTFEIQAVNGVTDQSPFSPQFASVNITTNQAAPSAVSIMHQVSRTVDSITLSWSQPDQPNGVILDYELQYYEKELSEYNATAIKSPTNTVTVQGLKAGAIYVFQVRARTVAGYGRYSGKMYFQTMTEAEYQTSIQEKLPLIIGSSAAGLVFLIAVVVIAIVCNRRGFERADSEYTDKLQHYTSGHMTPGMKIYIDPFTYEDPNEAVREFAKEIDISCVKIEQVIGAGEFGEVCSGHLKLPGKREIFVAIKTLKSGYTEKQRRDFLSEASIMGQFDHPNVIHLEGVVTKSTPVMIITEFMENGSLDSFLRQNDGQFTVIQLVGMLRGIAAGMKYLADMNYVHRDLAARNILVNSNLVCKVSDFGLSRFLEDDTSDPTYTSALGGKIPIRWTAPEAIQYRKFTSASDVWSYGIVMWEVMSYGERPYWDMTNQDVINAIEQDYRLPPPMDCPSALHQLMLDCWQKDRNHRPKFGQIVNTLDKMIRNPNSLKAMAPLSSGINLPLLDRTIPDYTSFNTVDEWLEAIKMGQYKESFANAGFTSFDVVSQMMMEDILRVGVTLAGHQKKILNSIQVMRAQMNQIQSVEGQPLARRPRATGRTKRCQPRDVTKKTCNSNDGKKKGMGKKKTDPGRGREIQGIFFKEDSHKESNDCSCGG
Sequence of PIK3CA(Q546K) (P42336 whole entry Q546K): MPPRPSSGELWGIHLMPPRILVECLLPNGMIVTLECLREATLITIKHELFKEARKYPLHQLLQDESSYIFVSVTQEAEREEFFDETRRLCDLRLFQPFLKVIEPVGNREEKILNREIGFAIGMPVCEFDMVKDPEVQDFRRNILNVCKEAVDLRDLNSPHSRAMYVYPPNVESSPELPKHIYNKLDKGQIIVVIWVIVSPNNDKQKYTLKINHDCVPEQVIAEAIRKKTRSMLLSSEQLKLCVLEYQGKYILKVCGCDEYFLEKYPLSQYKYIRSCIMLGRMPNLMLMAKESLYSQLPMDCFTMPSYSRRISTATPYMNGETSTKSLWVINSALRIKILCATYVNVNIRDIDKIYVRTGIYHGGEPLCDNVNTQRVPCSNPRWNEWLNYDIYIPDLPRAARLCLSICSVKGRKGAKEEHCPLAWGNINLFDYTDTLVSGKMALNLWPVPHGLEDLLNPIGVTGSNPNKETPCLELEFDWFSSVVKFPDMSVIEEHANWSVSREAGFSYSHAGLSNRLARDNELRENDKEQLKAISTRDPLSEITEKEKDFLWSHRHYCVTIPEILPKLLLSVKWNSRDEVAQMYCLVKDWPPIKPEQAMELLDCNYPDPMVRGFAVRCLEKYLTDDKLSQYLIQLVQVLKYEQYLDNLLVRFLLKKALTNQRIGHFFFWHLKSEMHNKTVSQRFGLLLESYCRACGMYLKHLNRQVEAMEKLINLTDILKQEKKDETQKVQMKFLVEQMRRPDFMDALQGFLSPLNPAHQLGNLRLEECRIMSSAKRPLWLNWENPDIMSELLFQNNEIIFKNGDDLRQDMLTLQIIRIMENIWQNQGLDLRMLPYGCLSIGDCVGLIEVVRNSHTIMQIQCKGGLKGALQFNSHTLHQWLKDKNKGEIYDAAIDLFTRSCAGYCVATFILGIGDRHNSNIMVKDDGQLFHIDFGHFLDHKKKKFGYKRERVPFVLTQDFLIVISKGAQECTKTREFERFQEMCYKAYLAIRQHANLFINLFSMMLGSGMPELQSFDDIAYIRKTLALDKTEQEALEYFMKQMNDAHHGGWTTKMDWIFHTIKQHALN
T3 sequence (P45984 whole entry): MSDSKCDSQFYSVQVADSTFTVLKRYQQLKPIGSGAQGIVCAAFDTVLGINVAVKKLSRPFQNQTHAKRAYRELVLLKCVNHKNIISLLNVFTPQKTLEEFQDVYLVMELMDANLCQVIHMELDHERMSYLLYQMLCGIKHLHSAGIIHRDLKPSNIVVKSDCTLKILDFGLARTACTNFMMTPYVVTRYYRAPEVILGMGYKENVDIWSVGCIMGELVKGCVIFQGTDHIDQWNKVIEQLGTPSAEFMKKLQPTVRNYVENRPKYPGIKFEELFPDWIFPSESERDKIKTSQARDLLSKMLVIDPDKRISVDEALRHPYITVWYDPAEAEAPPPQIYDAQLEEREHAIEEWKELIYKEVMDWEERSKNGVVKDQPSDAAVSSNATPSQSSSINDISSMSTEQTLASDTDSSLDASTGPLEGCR
T6 sequence (Q00537 whole entry): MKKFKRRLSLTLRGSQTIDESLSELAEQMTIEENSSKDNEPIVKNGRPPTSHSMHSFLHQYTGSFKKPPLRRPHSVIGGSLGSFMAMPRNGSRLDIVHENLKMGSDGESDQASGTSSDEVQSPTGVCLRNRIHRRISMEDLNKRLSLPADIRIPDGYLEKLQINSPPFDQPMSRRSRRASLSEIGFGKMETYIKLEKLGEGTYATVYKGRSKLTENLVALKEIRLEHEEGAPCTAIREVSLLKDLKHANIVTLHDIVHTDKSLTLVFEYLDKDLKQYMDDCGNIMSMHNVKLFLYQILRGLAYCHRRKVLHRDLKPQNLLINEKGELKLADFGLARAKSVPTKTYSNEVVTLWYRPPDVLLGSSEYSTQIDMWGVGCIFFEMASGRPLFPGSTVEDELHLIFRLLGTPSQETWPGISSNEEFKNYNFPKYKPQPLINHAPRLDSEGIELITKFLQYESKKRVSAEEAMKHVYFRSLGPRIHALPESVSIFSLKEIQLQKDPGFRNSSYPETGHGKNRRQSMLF
Sequence of ROCK1 (Q13464 whole entry): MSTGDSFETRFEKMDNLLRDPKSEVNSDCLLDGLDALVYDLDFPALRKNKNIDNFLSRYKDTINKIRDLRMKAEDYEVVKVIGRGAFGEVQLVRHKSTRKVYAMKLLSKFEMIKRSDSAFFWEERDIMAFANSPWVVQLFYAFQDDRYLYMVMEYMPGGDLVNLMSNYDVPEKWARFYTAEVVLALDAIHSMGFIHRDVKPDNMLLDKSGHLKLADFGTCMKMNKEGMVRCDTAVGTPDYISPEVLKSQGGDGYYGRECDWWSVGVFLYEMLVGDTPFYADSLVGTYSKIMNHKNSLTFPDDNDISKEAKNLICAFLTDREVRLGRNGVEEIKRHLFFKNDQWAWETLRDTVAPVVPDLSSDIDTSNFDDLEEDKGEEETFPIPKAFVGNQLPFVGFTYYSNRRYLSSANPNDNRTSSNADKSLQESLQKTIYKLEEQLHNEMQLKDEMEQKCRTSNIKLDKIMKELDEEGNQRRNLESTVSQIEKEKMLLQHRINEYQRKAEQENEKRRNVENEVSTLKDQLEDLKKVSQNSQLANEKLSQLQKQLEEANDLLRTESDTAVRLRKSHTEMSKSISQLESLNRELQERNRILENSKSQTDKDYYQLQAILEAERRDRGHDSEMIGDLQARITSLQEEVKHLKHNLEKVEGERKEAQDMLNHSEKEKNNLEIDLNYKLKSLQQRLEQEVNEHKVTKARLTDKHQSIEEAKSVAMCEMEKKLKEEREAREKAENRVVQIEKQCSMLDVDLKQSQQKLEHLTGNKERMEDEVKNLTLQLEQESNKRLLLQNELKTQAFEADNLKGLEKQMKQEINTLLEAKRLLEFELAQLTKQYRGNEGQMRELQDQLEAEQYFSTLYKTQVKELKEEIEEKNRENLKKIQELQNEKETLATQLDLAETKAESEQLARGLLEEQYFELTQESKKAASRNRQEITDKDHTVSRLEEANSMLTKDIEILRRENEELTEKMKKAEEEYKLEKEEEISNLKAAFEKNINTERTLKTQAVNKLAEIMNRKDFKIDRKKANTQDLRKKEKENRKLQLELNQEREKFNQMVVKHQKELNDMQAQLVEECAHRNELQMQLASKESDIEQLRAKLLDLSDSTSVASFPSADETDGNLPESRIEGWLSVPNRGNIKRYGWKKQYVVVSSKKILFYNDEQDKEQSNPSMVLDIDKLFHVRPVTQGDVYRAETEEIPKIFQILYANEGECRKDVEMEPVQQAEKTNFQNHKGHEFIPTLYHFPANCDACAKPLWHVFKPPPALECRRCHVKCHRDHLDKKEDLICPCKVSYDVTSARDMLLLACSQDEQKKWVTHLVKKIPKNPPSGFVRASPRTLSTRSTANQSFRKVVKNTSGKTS
Sequence of STK33 (Q9BYT3 whole entry): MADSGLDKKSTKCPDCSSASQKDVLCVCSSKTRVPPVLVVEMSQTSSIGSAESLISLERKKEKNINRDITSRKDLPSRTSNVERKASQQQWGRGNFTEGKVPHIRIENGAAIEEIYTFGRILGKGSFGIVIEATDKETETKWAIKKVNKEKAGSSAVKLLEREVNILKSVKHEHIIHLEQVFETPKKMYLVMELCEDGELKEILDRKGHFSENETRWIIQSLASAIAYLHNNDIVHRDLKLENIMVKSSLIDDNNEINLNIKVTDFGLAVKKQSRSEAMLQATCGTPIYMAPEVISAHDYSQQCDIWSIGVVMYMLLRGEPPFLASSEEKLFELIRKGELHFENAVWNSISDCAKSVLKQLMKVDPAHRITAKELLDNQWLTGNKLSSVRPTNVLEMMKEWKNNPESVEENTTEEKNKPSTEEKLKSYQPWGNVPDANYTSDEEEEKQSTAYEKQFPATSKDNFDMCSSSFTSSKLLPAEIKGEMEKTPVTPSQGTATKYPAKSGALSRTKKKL

Turning to `CNS(=O)(=O)c1ccc(N(C)C)c(Nc2ncnc3cc(OC)c(OC)cc23)c1` [compound 7, 3-((6,7-dimethoxyquinazolin-4-yl)amino)-4-(dimethylamino)-N-methylbenzenesulfonamide], the inhibition at 1 µM in experiment [1] came to 0%; in experiment [2], 12%; in experiment [3], 0%; in experiment [4], 0%; in experiment [5] it was 7%; in experiment [6], 5%. The inhibition at 1 µM stood at 68% in [7]; 0% in experiment [8]; 0% in [9]; 63% in [10]; 42% in experiment [11]; 0% in experiment [12]. The inhibition at 1 µM came out at 0% in experiment [13]; 0% in experiment [14]; 36% in experiment [15]; 0% in experiment [16]; 7% in [17]; 0% in experiment [18]. The inhibition at 1 µM in experiment [19] amounted to 1%; in experiment [20] it was 0%; in experiment [21], 6%; in [22] it was 0%; in experiment [23] it was 0%; in experiment [24], 72%.
